Laboratory results from patent US20020082263A1, “Heterocycle derivatives as PPAR-gamma agonists” (priority 2000, published 2002).

Columns and labels:
[1] = system: db/db mice (C578BL/KsJ-db/db Jcl); test: Effect on serum glucose and serum insulin in db/db mice; type: in vivo, mouse; conditions: oral; for Serum Glucose (% reduction) / Serum Insulin (% reduction): blood 1.5 h after last dose vs pretreatment blood, mean ± SEM
Experimental: Compounds prepared in accordance with Examples 8 and 36 were evaluated for their effect on serum glucose and serum insulin in db/db mice (C578BL/KsJ-db/db Jcl). The compounds were dissolved in a vehicle consisting of 2% Tween80 in distilled water and administered orally. Dosage volume was 10 ml/kg body weight. All aspects of the work including experimentation and disposal of the animals was performed in general accordance with the International Guiding Principles for Biomedical Research Involving Animals (CIOMS Publication No. ISBN 92 90360194, 1985). Glucose-HA Assay kits (Wako, Japan) were used for determination of serum glucose and ELISA Mouse Insulin Assay kits (SPI bio, France) were utilized for determination of insulin. The positive control was troglitazone (Helios Pharmaceutical, Louisville, Ky.).
The animals were divided into twenty groups of four animals each. The animals weighed 52±5 gms at age 8-10 weeks. During the experiment the animals were provided free access to laboratory chow (Fwusow Industry Co., Taiwan) and water
Prior to any treatment a blood sample (pretreatment blood) was taken from each animal. Four groups of animals, the vehicle groups, received only doses of the vehicle. Each of the vehicle groups received of 100, 30, 10 or 1 ml/kg body weight of the vehicle orally. […] The compound of Example 8 was administered orally as a solution (10 ml/kg body weight in tween 80/water) to four groups of animals with each group receiving a different dose of the compound. The dosage rates were […] body weight with only one dosage rate administered to each group. […] The vehicle, positive control and test compound solutions were administered to the groups immediately, 24 hours and 48 hours after drawing the pretreatment blood. Blood was withdrawn (post treatment blood) 1.5 hours after administration of the last dose.
The serum glucose levels of the blood samples was determined enzymatically (Mutaratose-GOD) and the insulin levels by ELISA (mouse insulin assay kit). The mean ±SEM of each group was calculated and the percent inhibition of serum glucose and insulin was obtained by comparison between pretreatment blood and post treatment blood. The percentage of reduction of the serum glucose and insulin levels in the post treatment blood relative to the pretreatment blood was determined and the Unpaired students t test was applied for the comparison between the control and test solution groups and the vehicle group. A significant difference was considered at P<0.05.

PPAR-gamma = biological target: T1, PPAR-gamma (Homo sapiens, UniProt P37231); test: Reporter gene assay in transfected HepG2 cells: transcriptional activation of a PPRE via a PPAR-gamma mediated pathway; type: cell-based; conditions: transfected human hepatoma (HepG2) cells, 36-48 h exposure, reporter gene activity
T1 construct: host or cells: HepG2 (human hepatoma), transfected
T1 sequence (P37231 1-505): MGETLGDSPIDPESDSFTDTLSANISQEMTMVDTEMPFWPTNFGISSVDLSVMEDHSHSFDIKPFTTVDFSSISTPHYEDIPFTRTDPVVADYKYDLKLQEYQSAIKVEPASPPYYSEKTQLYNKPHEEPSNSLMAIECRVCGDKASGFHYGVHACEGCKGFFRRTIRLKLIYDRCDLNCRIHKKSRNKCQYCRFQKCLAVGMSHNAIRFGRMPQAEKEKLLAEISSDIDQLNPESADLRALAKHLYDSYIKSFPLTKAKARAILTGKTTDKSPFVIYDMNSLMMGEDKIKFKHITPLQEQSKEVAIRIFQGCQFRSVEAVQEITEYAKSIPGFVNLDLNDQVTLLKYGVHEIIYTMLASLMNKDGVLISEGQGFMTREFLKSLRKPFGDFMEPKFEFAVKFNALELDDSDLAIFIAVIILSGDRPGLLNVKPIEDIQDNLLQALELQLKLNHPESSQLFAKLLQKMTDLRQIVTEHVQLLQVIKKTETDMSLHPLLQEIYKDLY
Experimental: A reporter gene assay utilizing transfected human hepatoma (HepG2) cells is used to screen for compounds that transcriptionally activate a PPRE via a PPAR-gamma mediated pathway. Cells are exposed to experimental compounds dissolved in DMSO for 36-48 h prior to determination of reporter gene activity. 15dPGJ2 (2 μM) is used as positive control and vehicle (DMSO) is used as a negative control.

[2] = 100 mg/kg body weight, P<0.01, unpaired t test

Compound: COc1cc(CN2C[C@@H](CC(=O)NCC3CCCO3)N(C(=O)NC3CCCCC3)[C@@H](CC(C)C)C2=O)cc(OC)c1 (stereo partly drawn) [Example 8, N-Tetrahydrofurfuryl (R)-[1-cyclohexylcarbamoyl-4-(3,5-dimethoxybenzyl)-6-(S)-isobutyl-5-oxo-piperazin-2-yl]-acetamide]
- Serum Glucose (% reduction) ([1]; 1 mg/kg at 0, 24 and 48 h): 9 ± 8%
- Serum Insulin (% reduction) ([1]; 1 mg/kg at 0, 24 and 48 h): 3 ± 7%
- Serum Glucose (% reduction) ([1]; 3 mg/kg at 0, 24 and 48 h): −1 ± 3%
- Serum Insulin (% reduction) ([1]; 3 mg/kg at 0, 24 and 48 h): −7 ± 3%
- Serum Glucose (% reduction) ([1]; 10 mg/kg at 0, 24 and 48 h): 18 ± 6%
- Serum Insulin (% reduction) ([1]; 10 mg/kg at 0, 24 and 48 h): 1 ± 4%
- Serum Glucose (% reduction) ([1]; 30 mg/kg at 0, 24 and 48 h): 14 ± 2%
- Serum Insulin (% reduction) ([1]; 30 mg/kg at 0, 24 and 48 h): 5 ± 4%
- Serum Glucose (% reduction) ([1]; 100 mg/kg at 0, 24 and 48 h): 41 ± 6%
- Serum Insulin (% reduction) ([1]; 100 mg/kg at 0, 24 and 48 h): 6 ± 2.5%
- reduction of serum glucose relative to the vehicle treated groups (in words) [1, 2]: significant reduction

Compound: CNC(=O)CC1CN(Cc2cc(OC)cc(OC)c2)C(=O)[C@H](CC(C)C)N1C(=O)NC1CCCCC1 (stereo partly drawn) [Example 32, N-Methyl[1-cyclohexylcarbamoyl-4-(3,5-dimethoxybenzyl)-6-(S)-isobutyl-5-oxo-piperazin-2-yl]-acetamide]
- EC50 (PPAR-gamma): 0.62 µM

Compound: CCCCNC(=O)CC1CN(Cc2cc(OC)cc(OC)c2)C(=O)[C@H](CC(C)C)N1C(=O)NC1CCCCC1 (stereo partly drawn) [Example 35, N-Butyl[1-cyclohexylcarbamoyl-4-(3 ,5-dimethoxybenzyl)-6-(S)-isobutyl-5-oxo-piperazin-2-yl]-acetamide]
- EC50 (PPAR-gamma): 0.12 µM

Compound: CCCCNC(=O)C[C@@H]1CN(Cc2cc(OC)cc(OC)c2)C(=O)[C@H](CC(C)C)N1C(=O)NC1CCCCC1 [Example 36, N-Butyl (R)-[1-cyclohexylcarbamoyl-4-(3 5-dimethoxybenzyl)-6-(S)-isobutyl-5-oxo-piperazin-2-yl]-acetamide]
- Serum Glucose (% reduction) ([1]; 1 mg/kg at 0, 24 and 48 h): −1 ± 2%
- Serum Insulin (% reduction) ([1]; 1 mg/kg at 0, 24 and 48 h): 8 ± 7%
- Serum Glucose (% reduction) ([1]; 3 mg/kg at 0, 24 and 48 h): 0 ± 2%
- Serum Insulin (% reduction) ([1]; 3 mg/kg at 0, 24 and 48 h): −9 ± 2%
- Serum Glucose (% reduction) ([1]; 10 mg/kg at 0, 24 and 48 h): −4 ± 7%
- Serum Insulin (% reduction) ([1]; 10 mg/kg at 0, 24 and 48 h): −9 ± 6%
- Serum Glucose (% reduction) ([1]; 30 mg/kg at 0, 24 and 48 h): 37 ± 8%
- Serum Insulin (% reduction) ([1]; 30 mg/kg at 0, 24 and 48 h): 1 ± 2%
- reduction of serum glucose relative to the vehicle treated groups (in words) ([1]; 30 mg/kg body weight, P<0.05, unpaired t test): significant reduction
- Serum Glucose (% reduction) ([1]; 100 mg/kg at 0, 24 and 48 h): 40 ± 7%
- Serum Insulin (% reduction) ([1]; 100 mg/kg at 0, 24 and 48 h): 2 ± 4%
- reduction of serum glucose relative to the vehicle treated groups (in words) [1, 2]: significant reduction

Compound: CCCC[C@H]1C(=O)N(Cc2cc(OC)cc(OC)c2)CC(CC(=O)NC)N1C(=O)NC1CCCCC1 (stereo partly drawn) [Example 41, N-Methyl[1-cyclohexylcarbamoyl-4-(3,5-dimethoxybenzyl)-6-(S)-butyl-5-oxo-piperazin-2-yl]-acetamide]
- EC50 (PPAR-gamma): 2.35 µM

Compound: CCNC(=O)CC1CN(Cc2cc(OC)cc(OC)c2)C(=O)[C@H](CC(C)C)N1C(=O)NC1CCCCC1 (stereo partly drawn) [Example 42, N-Ethyl[1-cyclohexylcarbamoyl-4-(3,5-dimethoxybenzyl)-6-(S)-isobutyl-5-oxo-piperazin-2-yl]-acetamide]
- EC50 (PPAR-gamma): 0.25 µM

Compound: COc1cc(CN2CC(CC(=O)NCCO)N(C(=O)NC3CCCCC3)[C@@H](CC(C)C)C2=O)cc(OC)c1 (stereo partly drawn) [Example 43, N-(2-Hydroxyethyl)[1-cyclohexylcarbamoyl-4-(3,5-dimethoxybenzyl)-6-(S)-isobutyl-5-oxo-piperazin-2-yl]-acetamide]
- EC50 (PPAR-gamma): > 1 µM

Compound: Cc1c(C)c2c(c(C)c1O)CCC(C)(COc1ccc(CC3SC(=O)NC3=O)cc1)O2 (centres unmarked) [troglitazone, reference compound]
- Serum Glucose (% reduction) ([1]; 10 mg/kg at 0, 24 and 48 h): 25±2%
